Measured values taken from paper PMC6773697, “Antileukemic activity of novel adenosine derivatives” (Scientific Reports, 2019).

Key:
Type in all cases: cell-based, human
[1] = system: intracellular calcium in THP-1 cells; experiment: Intracellular calcium assay (Fluo-4 NW), THP-1; details: THP-1, 2 h incubation
Procedure: Intracellular calcium levels were determined using the fluorescent probe Fluo-4 NW. The cells were plated in 96-well black plates (15 × 10^3 cells/well) and treated with cladribine and the new derivatives. Incubation with drugs was performed for different times (2–48 h). The medium was then removed, and the cells were washed with phosphate buffered saline (PBS)[35],[36]. Finally, a dye loading solution (Fluo-4 NW dye, probenecid, assay buffer—1xHBSS, 20 mM HEPES; 100 μL per well) was processed according to the Fluo-4 NW Calcium Assay Kit protocol (Molecular Probes) and incubated for 30 min in the dark at 37 °C, and then for another 30 min at the room temperature. The measurements were calculated on a fluorescence plate reader for excitation at 494 nm and emission at 516 nm. To avoid errors in the measurement of fluorescence intensity, caused by feasible cell detachment and resulting decrease in the cell number in the samples due to the drug treatment, DNA content was estimated as well.[37] After the measurement of intracellular calcium fluorescence, the probes were centrifuged at 300xg, 10 min. […] Then 100 μl of 5 μM of propidium iodide (PI) was added, the plate was immediately shaken, incubated for 15 min at room temperature in the dark and the fluorescence was read at 350/620 nm with a Fluoroskan Ascent FL microplate reader (Labsystems, Sweden).

HL-60 cells = experiment: Comet assay with proteinase K post-treatment (DNA-protein cross-links), HL-60; details: for DNA damage after proteinase K: HL-60, 24 h
Procedure: Single cell gel electrophoresis (comet assay) was used to detect alkali labile sites, single and double DNA strand breaks, and cross-links induced by genotoxic agents. After electrophoresis and gel staining with 4,6-diamidino-2-phenylindole (DAPI), the released DNA was visible under a fluorescence microscope as a characteristic comet tail. The cells were plated on 24-well plates (20,000 cells/mL) and treated with CLA, CLA-FMOR, CLA-FPIP, or CLA-FPIR at the indicated concentrations for 2, 24, and 48 h at 37 °C. Some cells were preincubated with an ATR kinase inhibitor (VE-821) for 1 h at 37 °C before adding the tested compounds. Next, cells were collected into Eppendorf tubes and rinsed with PBS. Then, cells were suspended in 0.75% low melting point (LMP) agarose dissolved in PBS (pH 7.4) and placed on microscope slides precoated with 0.5% normal melting point (NMP) agarose. Subsequently, the slides were treated with a cooled lysis buffer (2.5 M NaCl, 100 mM EDTA, 10 mM Tris, 1% Triton X-100, pH 9.0) for 1–24 h at 4 °C. Then, slides were placed in developing buffer (300 mM NaOH, 1 mM EDTA) for 20 min. Electrophoresis was performed in […] (30 mM NaOH, 1 mM EDTA) at 29 V and 30 mA for 20 min. The samples were stained with DAPI ([…]). The slides were stored in a wet chamber at 4 °C and analyzed under a fluorescence microscope. Fifty randomly selected cells from each slide were measured using image analysis (Nikon, Japan) attached to a COHU 4910 video camera, which was equipped with a UV-1 filter block consisting of an excitation filter (359 nm) and a barrier filter (461 nm) connected to the image analysis system Lucia-Comet v. 4.51 (Czech Republic)[41]. In the samples preincubated with VE-821, the level of DNA damage associated with the ATR kinase was determined.
Because cross-links can be undetectable in the alkaline comet assay, a variant of this method including post-treatment with proteinase K (Cat no: P2308) was used. Proteinase K digests peptide bonds, releasing the cross-linked DNA […] the DNA-protein complexes without altering the structure of the DNA-DNA complexes to distinguish them. After lysis, the slides were washed three times in TE buffer (10 mM Tris, pH 10, 1 mM EDTA). The cells were treated with aliquots of proteinase K (60 µL per slide; 1 mg/mL TE buffer) for 1 h at 37 °C in a wet chamber. Further steps of the comet assay were performed as described above.

γH2AX in MOLT-4 cells = experiment: H2AX (phospho S139) In-Cell ELISA, MOLT-4; details: MOLT-4, 48 h, versus CLA
Procedure: The level H2AX protein phosphorylated Ser139 was measured in tested leukemia cells by using of In-Cell ELISA, ICE assay kit. The cells were seeded on 96-well plates (100 × 10^3/well) and 48 h later, incubated with the appropriate compounds. In some experimental variants, cells were preincubated for 1 h with VE-821 (10 µM). The cells were fixed by adding a final concentration of 4% paraformaldehyde solution (10 min, room temperature). After 2 h of Block Solution incubation, cells were treated with a highly specific antibody. A rabbit monoclonal antibody specific to H2AX (phospho S139) was used (at 1:100, 2 h incubation). Next Secondary Antibody Solution (at 1:1000) were added to the cells. The measurements were obtained on a fluorescence plate reader at an excitation wavelength of 680 nm and emission at 694 nm. The cells were PBS washed and 100 µL of Janus Green Stain was added to each well of the plate (5 min., room temperature). The data were collected at excitation wavelength of 750 nm and emission at 800 nm channel (Fluoroskan Cary Eclipse). Antibody signal intensity was normalized to the total amount using Janus Green cell-stain.

Row | SMILES | intracellular calcium ion concentration [1] | DNA damage after proteinase K (HL-60 cells) | effectiveness in inducing dsDNA (γH2AX) relative to CLA (γH2AX in MOLT-4 cells) | DNA-protein cross-links after proteinase K (HL-60 cells; HL-60, starting at 2 h of incubation)
1 | OC[C@H]1O[C@@H](n2cnc3c(N=CN4CCCC4)nc(Cl)nc32)C[C@@H]1O [CLA-FPIR, [6-deamino-6-(N′, N′-l′, 4′-tetramethyleneformamidino)] cladribine] | highest intracellular calcium ion concentration | increased the DNA damage | about 2 fold | –
2 | OC[C@H]1O[C@@H](n2cnc3c(N=CN4CCOCC4)nc(Cl)nc32)C[C@@H]1O [CLA-FMOR, [6-deamino-6-(N′, N′-3′-oxa-1′, 5′-pentamethyleneformamidine)] cladribine] | highest intracellular calcium ion concentration | increased the DNA damage | about 2 fold | increased the level of cross-links
